The text below walks through data of patent US12122854B2, “Graft copolymer and preparation method and use thereof” (ANHUI AGRICULTURAL UNIVERSITY, priority 2022, dated 2024).

Test [1] in a line: DPPH free radical scavenging rate. It counts as biochemical. To be noted: 30 min. As for the experimental part: The scavenging rate of EPSF-starch on DPPH free radicals was measured as follows: The N-ethyl-2-pyrrolidinone-substituted flavan-3-ol (EPSF) in Example 1 and EGCG in Comparative Example 1 were uniformly dispersed in methanol separately, obtaining dispersions with mass concentrations of 2 μg/mL, 4 μg/mL, 6 μg/mL, 8 μg/mL, 10 μg/mL and 12 μg/mL. The corn starch and EPSF-starch in Example 1, as well as the EGCG-starch in Comparative Example 1, were uniformly dispersed in methanol to obtain dispersions with mass concentrations of 0.156 mg/mL, 0.313 mg/mL, 0.625 mg/mL, 1.25 mg/mL, and 2.50 mg/mL. 2 mL of the above sample dispersions were pipetted in sequence into test tubes, and 2.0 mL of a DPPH solution (0.2 mmol/L, which was prepared with methanol) was added thereto, respectively. The resulting mixture was shaken well, and reacted at ambient temperature in dark for 30 minutes. The absorbance A1 thereof was then measured at 517 nm. Meanwhile, DPPH solution was replaced with an equal amount of methanol solution, and the absorbance A2 thereof was measured according to the above method. The absorbance A0 of a mixture of 2.0 mL of methanol and 2.0 mL of DPPH solution was measured. Experiments of each group were repeated three times, and the DPPH free radical scavenging rate of EPSF-starch was calculated according to Equation 1.
[formula] • where A0 represents the absorbance of the mixture of methanol and DPPH solution; A1 represents the absorbance of a mixture of the sample dispersion and DPPH free radical solution; and A2 represents the absorbance of a mixture of the sample dispersion and methanol.
(In general: DPPH is a stable violet radical that fades when it is reduced.)

Test [2] can be described thus: ABTS free radical scavenging rate. Format: biochemical. Conditions: 5 min. As to the method:
The ABTS free radical scavenging rate of EPSF-starch was measured as follows: 100 mg of ABTS and 34.4 mg of potassium persulfate were dissolved in 25 mL of distilled water. They were shaken well, and stored at ambient temperature in dark for 12-16 hours.
EPSFs in Example 1 and EGCG in Comparative Example 1 were dispersed uniformly in methanol, obtaining dispersions with mass concentrations of 2 μg/mL, 4 μg/mL, 6 μg/mL, 8 μg/mL, 10 μg/mL and 12 μg/mL. The corn starch and EPSF-starch in Example 1, as well as the EGCG-starch in Comparative Example 1, were uniformly dispersed in methanol obtaining dispersions with mass concentrations of 0.156 mg/mL, 0.313 mg/mL, 0.625 mg/mL, 1.25 mg/mL, and 2.50 mg/mL. 1.0 mL of the above sample solutions and 3.0 mL of the ABTS free radical working solution were added to the test tube in sequence, and they were shaken well, and reacted at ambient temperature in dark for 5 minutes. The absorbance A1 thereof was measured at 734 nm. The sample solutions were replaced with methanol and the absorbance A0 thereof was measured according to the above method. EGCG, starch, and EGCG-starch functioned as control groups, and the ABTS free radical scavenging rates thereof were determined according to the above method. Experiment of each group was repeated three times, and the ABTS free radical scavenging rate of each sample was calculated according to Equation 2.
[formula] • where A0 represents the absorbance of a mixture of the sample dispersion and methanol; and A1 represents the absorbance of the sample dispersion and ABTS radical solution.

Consider epigallocatechin-3-gallate [EGCG], for which the “DPPH free radical scavenging rate” value in test [1] (sample concentration 2 μg/ml in methanol) was 21.57 ± 0.04%; in test [1] (sample concentration 4 μg/ml in methanol) it was 50.98 ± 0.25%; in test [1] (sample concentration 6 μg/ml in methanol), 67.85 ± 4%; in test [1] (sample concentration 8 μg/ml in methanol), 88.44 ± 0.27%; in test [1] (sample concentration 10 μg/ml in methanol) it was 85.67 ± 2.01%; in test [1] (sample concentration 12 μg/ml in methanol), 87.39 ± 2.62%. Further, in test [1] (sample concentration 2.5 mg/ml in methanol), the “DPPH free radical scavenging rate” value worked out at 90%. Also, the “ABTS free radical scavenging rate” value is 51.91 ± 2.1% in test [2] (sample concentration 2 μg/mL in methanol); 78.8 ± 1.73% in test [2] (sample concentration 4 μg/mL in methanol); 91.49 ± 1.23% in test [2] (sample concentration 6 μg/mL in methanol); 94.38 ± 2.07% in test [2] (sample concentration 8 μg/mL in methanol); 95.17 ± 1.8% in test [2] (sample concentration 10 μg/mL in methanol); 95.24 ± 1.69% in test [2] (sample concentration 12 μg/mL in methanol).
